Source: the METLIN SMRT retention time set (Domingo-Almenara et al. 2019)

Test: gradient 5% acetonitrile 3 min, to 50% in 2 min, to 85% in 15 min, held 3 min, 100 µL/min
Conditions: column: Zorbax Extend-C18 2.1 x 50 mm; eluents: water / acetonitrile, 0.1% formic acid
How it was run: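 In both positive and negative ionization mode, a quadrupole time-of-flight mass spectrometer coupled to HPLC analyzed pure standards run in mixtures of ~100 molecules. The Zorbax Extend-C18 column (2.1 × 50 mm, 1.8 μm) was operated at 100 μL/min with water and acetonitrile, each containing 0.1% formic acid. The dead volume was 40 μL and the dwell volume 900 μL. Retention time came from adduct peaks that were computationally picked and individually inspected by hand.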

CC(C)S(=O)(=O)c1ccc(Cc2nnc(NC(=O)c3ccc4ncsc4c3)o2)cc1
RP-LC retention time: 641 s

CN(CC1CCOC1)C(=O)c1cc(Cl)ccc1F (centres undefined)
RP-LC retention time: 719 s

CCC(C)NC(=O)C1CCC(=O)N(c2cc(OC)c(OC)c(OC)c2)C1c1ccc(OC)cc1 (centres undefined)
RP-LC retention time: 693 s

Cc1ccc(CNC(=O)CCC2CCN(c3cc(NC4CC4)ncn3)CC2)cc1
RP-LC retention time: 714 s

CN1CCN(CCNC(=O)Cn2c3ccccc3c3cnn(C)c(=O)c32)CC1
RP-LC retention time: 570 s

Cc1ccccc1NC(=O)c1nc2ccccc2[nH]c1=O
RP-LC retention time: 735 s

CCOc1ccc(C(=O)N2CCCC(c3nnc(-c4ccccc4)o3)C2)cc1 (centres undefined)
RP-LC retention time: 892 s

Cn1c(=O)sc2cc(S(=O)(=O)N3CCC(C(=O)NCc4cccs4)CC3)ccc21
RP-LC retention time: 788 s

O=C1CCCN1CCCNc1ccc2nnc(CCC(=O)N3CCN(c4ccccn4)CC3)n2n1
RP-LC retention time: 557 s

COc1ccc(NC(=O)c2cnc3c(c2)c(=O)n(C)c(=O)n3-c2ccc(C)cc2)cc1
RP-LC retention time: 900 s

CNc1nc(Nc2ccc(F)cc2C)nc2ccccc12
RP-LC retention time: 678 s

CCCN1C(=O)COc2ccc(-c3noc(-c4ccc(N(C)C)cc4)n3)cc21
RP-LC retention time: 1280 s

CCC(C(=O)Nc1nc2ccccc2[nH]1)n1cnc2ccccc2c1=O (centres undefined)
RP-LC retention time: 652 s

Cc1nc(C2CCOCC2)n(C2CCN(S(=O)(=O)c3ccc(Cl)cc3C)C2)n1 (centres undefined)
RP-LC retention time: 771 s

COc1ccc(-c2nc(NCc3ccc(C)o3)c3ccccc3n2)cc1
RP-LC retention time: 784 s

COc1ccc(-c2nc3cnccn3c2Nc2ccc(OC)c(OC)c2)cc1
RP-LC retention time: 690 s

CCNc1cc(N2CCC(CCC(=O)NCC(C)C)CC2)ncn1
RP-LC retention time: 602 s

CCCN1C(=O)c2c(C(=O)NCCc3cccc(C)c3)ncn2CC1(C)C(=O)NC1CCCC1 (centres undefined)
RP-LC retention time: 918 s

Cc1noc(C)c1S(=O)(=O)N1CC(N(Cc2cccnc2)CC(C)C)C1
RP-LC retention time: 706 s

CCOC(=O)c1c(C)[nH]c(C(=O)N2CCCC(C(=O)NCCCN3CCCCCC3)C2)c1C (centres undefined)
RP-LC retention time: 624 s

COc1cc(CNC(=O)c2cn3ccc(C)cc3n2)cc(OC)c1
RP-LC retention time: 632 s

O=C(CCc1c(-c2ccc(F)cc2)nc2ccccn12)NCc1cccc(Br)c1
RP-LC retention time: 677 s

CC(=O)OCC(=O)NCCCOc1cccc(CN2CCCCC2)c1
RP-LC retention time: 618 s

COc1ccc(CN2CCC3(CC2)CC(C)(O)CCO3)cc1C (centres undefined)
RP-LC retention time: 629 s

Cc1ccc(CNc2cc(-n3cccn3)ncn2)cc1
RP-LC retention time: 898 s

CCc1ccc(NC(=O)N2CCCC(C)(C(=O)NCc3ccccc3C)C2)cc1 (centres undefined)
RP-LC retention time: 1040 s

CCC(=O)N1CCc2cc(N3CC(C(=O)N4CCCN(C)CC4)CC3=O)ccc21 (centres undefined)
RP-LC retention time: 572 s

COc1cc(OC)c(OC)cc1CN1C[C@@H]2C(=O)N(C)C(=O)[C@@H]2C1
RP-LC retention time: 570 s

COCCN(CCOC)c1nc(-c2ccc([N+](=O)[O-])cc2)nc2ccccc12
RP-LC retention time: 849 s

CCS(=O)(=O)Nc1ccc(-c2noc(COc3ccc(F)cc3)n2)cc1
RP-LC retention time: 931 s

CC(C)NC(=O)CN1C(=O)C2CCCCN2c2ccc(S(=O)(=O)N(C)C)cc21 (centres undefined)
RP-LC retention time: 781 s

CCCn1ccc2sc(C)c(C(=O)NCc3ccccc3F)c2c1=O
RP-LC retention time: 908 s

Cc1ccccc1Cc1noc(-c2nc(-c3ccc4c(c3)OCO4)no2)n1
RP-LC retention time: 1190 s

CCC(CC)c1nnc(NC(=O)C2CC(=O)N(CCc3c[nH]c4ccc(C)cc34)C2)s1 (centres undefined)
RP-LC retention time: 856 s

CN(C)c1ccc(CNC(=O)c2ccc3ncnc(N4CCCC4)c3c2)cc1
RP-LC retention time: 556 s

CCOc1ccc(C(=O)n2nc(C)c(S(=O)(=O)N3CCCCC3)c2C)cc1
RP-LC retention time: 997 s

Cc1ccc(NC(=O)N2CCC(c3nc(C(=O)N4CCCC4)c(C)o3)CC2)cc1
RP-LC retention time: 759 s

CCOc1ccc(NC(=O)CSc2nc(N3CCCCC3)nc3ccccc23)cc1
RP-LC retention time: 745 s

Cc1cc(NS(=O)(=O)c2c(C)sc(C)c2-c2n[nH]c(C)c2C)ccc1Br
RP-LC retention time: 1180 s

Cc1cccc(NC(=O)CSc2ccc(N3CCCC(C(=O)NC4CC4)C3)nn2)c1 (centres undefined)
RP-LC retention time: 648 s

CC(C)c1cc(C(=O)Nc2cccc(F)c2)nc2ccnn12
RP-LC retention time: 1140 s

COc1ccc(N2CC(c3nc(-c4cccc(OC)c4OC)no3)CC2=O)cc1 (centres undefined)
RP-LC retention time: 870 s

O=C(CCC(=O)N1CC2CCCN2c2ccccc21)NCc1ccco1 (centres undefined)
RP-LC retention time: 1090 s

COc1cccc(-c2noc(NC3CC3)n2)c1
RP-LC retention time: 787 s

COc1cn(-c2ccc(F)cc2)nc1C(=O)NCCC1=CCCCC1
RP-LC retention time: 942 s

COC(=O)c1cccc(NC(=O)NC2CCN(c3ccc(C)c(C)c3)C2=O)c1 (centres undefined)
RP-LC retention time: 847 s

CC12CC(NC(=O)N1c1cccc(C(=O)O)c1)c1ccccc1O2 (centres undefined)
RP-LC retention time: 683 s

CC(C)CCNC(=O)C1CCCN(C(=O)Nc2ccc(NC(=O)NC3CCCC3)cc2)C1 (centres undefined)
RP-LC retention time: 762 s

CC(C)(C)CC(=O)N1CCN(c2nc(CN3CCCCCC3)cs2)CC1
RP-LC retention time: 668 s

COc1ccc(-c2nc(CCNS(=O)(=O)c3ccc(Cl)s3)cs2)cc1OC
RP-LC retention time: 918 s

Cc1ccc(-c2nc3n(CC(=O)NC(C)C)c4c(c(=O)n3n2)CCC4)cc1
RP-LC retention time: 733 s

COc1cccc(-c2nc3sc(C(N)=O)c(C)n3c2NC(C)(C)C)c1
RP-LC retention time: 743 s

Cc1cc(C)n(CC(=O)N2CCN(c3ccccc3F)CC2)c1-c1nc(C2CC2)no1
RP-LC retention time: 971 s

Cc1cc2[nH]c(C(=O)Nc3ccc(F)cc3Cl)c(CN3CCOCC3)c2s1
RP-LC retention time: 721 s

CCCC[C@@]1(C2CCCC2)Cc2cc(OCC(=O)O)c(Cl)c(Cl)c2C1=O
RP-LC retention time: 1320 s

COc1ccc(CN2CCc3nc(N4CCN(c5ccccc5OC)CC4)ncc3C2)cc1
RP-LC retention time: 762 s

COc1ccc(NC(=O)NC2CCN(c3ccc(F)cc3)C2=O)c(OC)c1 (centres undefined)
RP-LC retention time: 716 s

CCN(CC)C(=O)Cn1cc(C(=O)C(=O)N2CCc3ccccc3C2)c2ccccc21
RP-LC retention time: 644 s

O=C(c1cnccn1)N1[C@H]2CC[C@@H]1c1cnc(-c3ccccc3)nc1C2
RP-LC retention time: 807 s

CC1CCN(C(=O)C2=NN(CC(=O)OC(C)C)c3ccccc3S2(=O)=O)CC1
RP-LC retention time: 952 s

CCNc1cc(N2CCCC(CCC(=O)NCc3cccc(F)c3)C2)ncn1 (centres undefined)
RP-LC retention time: 585 s

O=C(NCCn1ncccc1=O)Nc1ccccc1C(F)(F)F
RP-LC retention time: 642 s

O=C(Nc1nc2ccc([N+](=O)[O-])cc2s1)c1ccc(S(=O)(=O)N2CCCCC2)cc1
RP-LC retention time: 1020 s

Cc1ccc(C)c(N2CCN(C(=O)c3cn(-c4ccc(NC(=O)C5CC5)cn4)cn3)CC2)c1
RP-LC retention time: 900 s

Cc1ccccc1S(=O)(=O)N1CCC(n2cnnc2C2CC2)CC1
RP-LC retention time: 706 s

Cc1ccc(-c2nc(-c3ccc(S(=O)(=O)N4CCC(C(=O)N5CCCC5)CC4)cc3)no2)cc1
RP-LC retention time: 1090 s

CCCNC(=O)c1cnn(-c2cc(-c3nc(CC)no3)ccn2)c1C
RP-LC retention time: 849 s

CCOc1ccc(NC(=O)CN2CCN(Cc3ccc(C)cc3)C(=O)C2=O)cc1
RP-LC retention time: 799 s

Cc1ccc(Nc2nc(N3CCN(c4ncccn4)CC3)nc3c2C(=O)CCC3)cc1
RP-LC retention time: 1220 s

CCc1ccccc1NC(=O)c1nnn(-c2ccc3noc(-c4ccccc4)c3c2)c1C
RP-LC retention time: 1160 s

O=C(NC1CCCC1)C1CCCN(c2ccc3cc(S(=O)(=O)N4CCCC4)ccc3n2)C1 (centres undefined)
RP-LC retention time: 716 s

COCCN(Cc1ccncc1)S(=O)(=O)c1ccc(-c2ccccc2)cc1
RP-LC retention time: 630 s

CCC(C)C(NC(=O)c1cccc(C)c1)C(=O)Nc1nc2ccccc2[nH]1 (centres undefined)
RP-LC retention time: 765 s

Cc1cccc(CN2CCn3c(nnc3[C@@H]3C[C@@H](O)CN3C)C2)c1
RP-LC retention time: 590 s

COc1cccc2cc(C(=O)N(CCc3cccs3)Cc3cccnc3)oc12
RP-LC retention time: 671 s

COc1ccc(C(C)NC(=O)c2c(C)sc3ccn(C)c(=O)c23)cc1 (centres undefined)
RP-LC retention time: 735 s

Cc1ccc(Nc2c(-c3ccccc3)nc3ncccn23)c(C)c1
RP-LC retention time: 786 s

N#CCN(c1ccc(F)cc1)S(=O)(=O)c1ccc2nncn2c1
RP-LC retention time: 669 s

CCN(CC)C(=O)c1sc2ncn(CC(=O)N3CCCCC3C)c(=O)c2c1C (centres undefined)
RP-LC retention time: 752 s

Cc1cc(N2CCN(C(=O)Nc3ccccc3C)CC2)nc(N2CCOCC2)n1
RP-LC retention time: 613 s

O=C(O)c1ccccc1-c1ccccc1C(=O)Nc1ccc2c(c1)Cc1ccccc1-2
RP-LC retention time: 939 s

Cc1sc2ncnc(N3CCCC(C)C3)c2c1C(=O)Nc1ccc(Br)cc1 (centres undefined)
RP-LC retention time: 1310 s

c1ccc(OCc2nc(-c3ccc4c(c3)nnn4CCN3CCCCC3)no2)cc1
RP-LC retention time: 698 s

O=C(Nc1cccs1)N1CCC(c2ccccc2)C1 (centres undefined)
RP-LC retention time: 810 s

Cc1ccc(S(=O)(=O)N2CCCCC2)cc1-c1nnc(-c2ccccc2)o1
RP-LC retention time: 1130 s

COc1cccc(Nc2c(-c3ccc(OC)c(OC)c3)nc3cnccn23)c1
RP-LC retention time: 794 s

COCCNC(=O)NCCn1c(-c2ccc(C)cc2)nc2ccccc21
RP-LC retention time: 588 s

CCOC(=O)CNC(=O)C1CCN(c2ncccc2S(=O)(=O)N2CCCCC2)CC1
RP-LC retention time: 784 s

O=C(CCC(=O)N1CC2CCCN2c2ccccc21)N1CCN(Cc2ccccc2)CC1 (centres undefined)
RP-LC retention time: 678 s
